The term melting point denotes the temperature, or range, at which the solid turns liquid.

The values that follow come from patent publication US20060223827A1, “Bioreductively activated stilbene prodrugs” (Siemens Aktiengesellschaft, priority 2003, published 2006).

Data set [1] is described as follows: Radiolysis (steady state): release of combretastatin A4 after one-electron reduction. The data set is classed as physicochemical. The conditions noted are these: isopropanol/water 50:50, N2O-saturated, 60Co source 3.9 Gy min^−1, HPLC. Here is the method: In the hypoxic environments of solid tumours, prodrugs can be reduced by one-electron processes that are inhibited in the normoxic environments of normal tissues.
Compounds were dissolved in an isopropanol/water mixture (50:50) at a concentration of 50 μM or below. Solutions, in gas-tight syringes, were saturated with nitrous oxide before irradiation in a ^60Co source at a dose rate of 3.9 Gy min^−1 (as determined by Fricke dosimetry: H. Fricke and E. J. Hart, “Chemical Dosimetry” in Radiation Dosimetry Vol. 2 (F. H. Attrix and W. C. Roesch. Eds.), pp 167-239. Academic Press New York, 1966.). Solutions were analysed for released drug by HPLC. The radiation chemical yields (G-values) of combretastatin A4 release obtained in this assay for selected example compounds are shown in Table 1.

Molecules are shown by their SMILES.

Turning to `COc1ccc(/C=C\c2cc(OC)c(OC)c(OC)c2)cc1OCc1c2c(n(C)c1C)C(=O)C=C(N1CCN(C)CC1)C2=O` [Example 5, 3-((3,4,4′,5-Tetramethoxy-(Z)-stilbene-3′-yl)oxy)methyl-1,2-dimethyl-5-(4 methylpiperazin-1-yl)indole-4,7-dione], the “G (radiation chemical yield of combretastatin A4 release)” value in data set [1] is 0.34 µmol/J. `COC1=CC(=O)c2c(c(COc3cc(/C=C\c4cc(OC)c(OC)c(OC)c4)ccc3OC)c(C)n2C)C1=O` [Example 4, 5-Methoxy-3-((3,4,4′,5-tetramethoxy-(Z)-stilbene-3′-yl)oxy)methyl-1,2-dimethylindole-4,7-dione]: the melting point was in the range of 192 to 194 °C. Moreover, the “G (radiation chemical yield of combretastatin A4 release)” value in data set [1] came out at 0.44 µmol/J. Turning to `COc1ccc(/C=C\c2cc(OC)c(OC)c(OC)c2)cc1OC(C)c1ccc([N+](=O)[O-])s1` (stereo not drawn) [Example 2, 1-(4-Methoxy-3-(1-(5-nitrothien-2-yl)ethoxy))phenyl-2-(3,4,5-trimethoxy)phenyl-Z-ethene], the “G (radiation chemical yield of combretastatin A4 release)” value in data set [1] is 0.33 µmol/J.

For the compound `COc1ccc(/C=C\c2cc(OC)c(OC)c(OC)c2)cc1OCc1ccc([N+](=O)[O-])s1` [Example 1, 1-(4-Methoxy-3-(5-nitrothien-2-yl)methoxy)phenyl-2-(3,4,5-trimethoxy)phenyl-Z-ethene], the melting point is 88 to 90 °C. For the same compound, the “G (radiation chemical yield of combretastatin A4 release)” value in data set [1] worked out at 0.23 µmol/J.
